Laboratory results reported in PubChem BioAssay (NCI).
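96-well plates; 48 h exposure; 5 concentrations. Endpoints by linear interpolation between flanking doses. Not reached: highest tested concentration assigned. Here, GI50 denotes the concentration required for 50% inhibition of growth. TGI marks complete inhibition of growth.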

Key:
Assay in all cases: DTP human tumour cell line panel, 48 h
SK-OV-3 ovarian = test system: SK-OV-3 ovarian
HCT-15 colon = test system: HCT-15 colon
SN12C renal = test system: SN12C renal
UACC-62 melanoma = test system: UACC-62 melanoma
OVCAR-3 ovarian = test system: OVCAR-3 ovarian
RXF 393 renal = test system: RXF 393 renal
CAKI-1 renal = test system: CAKI-1 renal
ACHN renal = test system: ACHN renal
OVCAR-8 ovarian = test system: OVCAR-8 ovarian
NCI-H226 lung = test system: NCI-H226 lung

SMILES | TGI (SK-OV-3 ovarian) [µM] | TGI (HCT-15 colon) [µM] | TGI (SN12C renal) [µM] | TGI (UACC-62 melanoma) [µM] | TGI (OVCAR-3 ovarian) [µM] | TGI (RXF 393 renal) [µM] | TGI (CAKI-1 renal) [µM] | TGI (ACHN renal) [µM] | TGI (OVCAR-8 ovarian) [µM] | TGI (NCI-H226 lung) [µM] | GI50 (SK-OV-3 ovarian) [µM] | GI50 (HCT-15 colon) [µM] | GI50 (SN12C renal) [µM] | GI50 (UACC-62 melanoma) [µM] | GI50 (OVCAR-3 ovarian) [µM] | GI50 (RXF 393 renal) [µM] | GI50 (CAKI-1 renal) [µM] | GI50 (OVCAR-8 ovarian) [µM] | GI50 (NCI-H226 lung) [µM]
CON(C)c1nc(N)c(C#N)c(C#N)c1C#N | > 10 | > 10 | > 10 | > 10 | > 10 | > 10 | > 10 | > 10 | > 10 | > 10 |  |  |  |  |  |  |  |  | 
C=C1CC[C@@]2(C)[C@@H]([C@@H]1C)[C@H]1CC[C@@H]3[C@@]4(C)CC[C@H](O)C(C)(C)[C@@H]4CC[C@@]3(C)[C@]1(C)C[C@@H]2O | 51.3 | 11.2 | > 100 | 28.2 | 16.1 | 4.04 | 5.59 | 4.44 |  | 40.1 |  |  |  |  |  |  |  |  | 
C=C1C(=O)OC2C1CCC(=C)C1CC(O)C(=C)C12 (stereo not drawn) | > 100 | 25.1 | 31.9 | 26.6 | 27.9 | 29.9 | 9.78 | 7.99 | 60.4 | > 63.1 |  |  |  |  |  |  |  |  | 
Cc1cc(OCc2nc(N)nc(N)c2-c2ccc(Cl)c(Cl)c2)ccc1[N+](=O)[O-] | > 63.3 | 27.4 | 25.9 | 1.88 | 3.29 | 21.6 | 31.8 | 2.37 | 34 | 28.6 |  |  |  |  |  |  |  |  | 
O=C([CH-]C(=O)c1ccccc1)c1ccccc1.[C-]#[O+].[C-]#[O+].[Ir] | > 100 | > 100 | > 100 | > 100 | > 100 | > 100 | > 100 |  | > 100 | > 100 | > 100 | 42.6 | 48.3 | 42.1 | > 100 | 33.6 | 79.1 | 45.4 | 33.3
O=C(O)c1cc2ccccc2c(Cc2c(O)c(C(=O)O)cc3ccccc23)c1O |  | > 100 | > 100 | > 100 | > 100 | > 100 | > 100 | > 100 | > 100 | > 100 |  |  |  |  |  |  |  |  | 
COc1ccc(CN(CCN(C)C)c2ccccn2)cc1 (tested in a mixture with another compound) | > 100 | > 100 | > 100 |  | > 100 |  | > 100 | > 100 | > 100 |  |  |  |  |  |  |  |  |  | 
Cc1cc(N(CCC#N)S(=O)(=O)c2ccccc2)ccc1C=Nc1cccc(C(=O)O)c1 | > 100 | > 100 | > 100 | > 100 | > 100 | > 100 | > 100 | > 100 | > 100 | > 100 |  |  |  |  |  |  |  |  | 
